Source: patent US11970497B2, “Tricyclic AKR1C3 dependent KARS inhibitors” (Novartis AG, priority 2019, dated 2024)

How the values were obtained:
[1] = test system: Hara (NRF2 pathway wild type cell line with low AKR1C3 expression); assay: In vitro cell proliferation assay (CellTiter-Glo), Hara; format: cell-based; conditions: 72 h; Hara cells, 3 days, CellTiter-Glo, top concentration 10 μM; read-out: HARA Qualified absolute AC50
Method in brief: (§1)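 Luminescent CellTiter-Glo readout after 3-day compound exposure at 37 °C; 8-point 1:5 series, top 10 μM final. Seeding: 800 cells/well for H460, 2000 cells/well for Hara, RPMI-1640 plus 10% FBS. AC50 and percentage activity derived after normalizing to DMSO (1%) and MG132 (30 μM) controls.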

[2] = test system: H460 (NRF2 pathway mutant cell line with high AKR1C3 expression); assay: In vitro cell proliferation assay (CellTiter-Glo), H460; format: cell-based; conditions: Homo sapiens, NCI-H460, 72 h; H460 cells, 3 days, CellTiter-Glo, top concentration 10 μM; read-out: H460 Qualified absolute AC50
Method in brief: as §1

Nc1cc(CNC(=O)N2CCC3(CC2)CC(=O)c2cc(F)ccc2N3)ccc1F [Example 95, N-(3-amino-4-fluorobenzyl)-6′-fluoro-4′-oxo-3′,4′-dihydro-1′H-spiro[piperidine-4,2′-quinoline]-1-carboxamide]
AC50 [1]: > 10000 nM | AC50 [2]: 485 nM

Nc1ccc(CNC(=O)N2CCC3(CC2)CC(=O)c2cc(F)ccc2N3)c(F)c1 [Example 98, N-(4-amino-2-fluorobenzyl)-6′-fluoro-4′-oxo-3′,4′-dihydro-1′H-spiro[piperidine-4,2′-quinoline]-1-carboxamide]
AC50 [1]: > 10000 nM | AC50 [2]: 498 nM

COCCNc1cc(CNC(=O)N2CCC3(CC2)CC(=O)c2cc(F)ccc2N3)ccc1F [Example 99, 6′-fluoro-N-(4-fluoro-3-((2-methoxyethyl)amino)benzyl)-4′-oxo-3′,4′-dihydro-1′H-spiro[piperidine-4,2′-quinoline]-1-carboxamide]
AC50 [1]: > 10000 nM | AC50 [2]: 507 nM

O=C(NCC(F)(F)F)c1cc(CNC(=O)N2CCC3(CC2)CC(=O)c2cc(F)ccc2N3)ccc1F [Example 101, 6′-fluoro-N-(4-fluoro-3-((2,2,2-trifluoroethyl)carbamoyl)benzyl)-4′-oxo-3′,4′-dihydro-1′H-spiro[piperidine-4,2′-quinoline]-1-carboxamide]
AC50 [1]: > 10000 nM | AC50 [2]: 528 nM

COC1CN(c2cc(CNC(=O)N3CCC4(CC3)CC(=O)c3cc(F)ccc3N4)ccc2F)C1 [Example 102, 6′-fluoro-N-(4-fluoro-3-(3-methoxyazetidin-1-yl)benzyl)-4′-oxo-3′,4′-dihydro-1′H-spiro[piperidine-4,2′-quinoline]-1-carboxamide]
AC50 [1]: 3720 nM | AC50 [2]: 555 nM

NC(=O)Cc1cc(CNC(=O)N2CCC3(CC2)CC(=O)c2cc(F)ccc2N3)ccc1F [Example 103, N-(3-(2-amino-2-oxoethyl)-4-fluorobenzyl)-6′-fluoro-4′-oxo-3′,4′-dihydro-1′Hspiro[piperidine-4,2′-quinoline]-1-carboxamide]
AC50 [1]: > 10000 nM | AC50 [2]: 558 nM

Nc1ccc(CNC(=O)N2CCC3(CC2)CC(=O)c2cc(F)ccc2N3)c(C(F)(F)F)c1 [Example 104, N-(4-amino-2-(trifluoromethyl)benzyl)-6′-fluoro-4′-oxo-3′,4′-dihydro-1′H-spiro[piperidine-4,2′-quinoline]-1-carboxamide]
AC50 [1]: > 10000 nM | AC50 [2]: 573 nM

O=C(NC1COC1)c1cc(CNC(=O)N2CCC3(CC2)CC(=O)c2cc(F)ccc2N3)ccc1F [Example 105, 6′-fluoro-N-(4-fluoro-3-(oxetan-3-ylcarbamoyl)benzyl)-4′-oxo-3′,4′-dihydro-1′H-spiro[piperidine-4,2′-quinoline]-1-carboxamide]
AC50 [1]: > 10000 nM | AC50 [2]: 580 nM

O=C1CC2(CCN(C(=O)NCc3cnoc3)CC2)Nc2ccc(F)cc21 [Example 107, 6′-fluoro-N-(isoxazol-4-ylmethyl)-4′-oxo-3′,4′-dihydro-1′H-spiro[piperidine-4,2′-quinoline]-1-carboxamide]
AC50 [1]: > 10000 nM | AC50 [2]: 612 nM

O=C1CC2(CCN(C(=O)NCc3ccc(OC(F)F)c(F)c3)CC2)Nc2c(F)cc(F)cc21 [Example 108, N-(4-(difluoromethoxy)-3-fluorobenzyl)-6′,8′-difluoro-4′-oxo-3′,4′-dihydro-1′H-spiro[piperidine-4,2′-quinoline]-1-carboxamide]
AC50 [1]: 3180 nM | AC50 [2]: 646 nM

NC(=O)c1c(F)ccc(CNC(=O)N2CCC3(CC2)CC(=O)c2cc(F)ccc2N3)c1F [Example 109, N-(3-carbamoyl-2,4-difluorobenzyl)-6′-fluoro-4′-oxo-3′,4′-dihydro-1′H-spiro[piperidine-4,2′-quinoline]-1-carboxamide]
AC50 [1]: > 10000 nM | AC50 [2]: 690 nM

Nc1ccc(CNC(=O)N2CCC3(CC2)CC(=O)c2cc(F)ccc2N3)c(Cl)c1 [Example 111, N-(4-amino-2-chlorobenzyl)-6′-fluoro-4′-oxo-3′,4′-dihydro-1′H-spiro[piperidine-4,2′-quinoline]-1-carboxamide]
AC50 [1]: > 10000 nM | AC50 [2]: 733 nM

Nc1ccc(CNC(=O)N2CCC3(CC2)CC(=O)c2cc(F)ccc2N3)cc1C(F)(F)F [Example 112, N-(4-amino-3-(trifluoromethyl)benzyl)-6′-fluoro-4′-oxo-3′,4′-dihydro-1′H-spiro[piperidine-4,2′-quinoline]-1-carboxamide]
AC50 [1]: > 10000 nM | AC50 [2]: 783 nM

COc1cc(F)ccc1CNC(=O)N1CCC2(CC1)CC(=O)c1cc(F)ccc1N2 [Example 114, 6′-fluoro-N-(4-fluoro-2-methoxybenzyl)-4′-oxo-3′,4′-dihydro-1′H-spiro[piperidine-4,2′-quinoline]-1-carboxamide]
AC50 [1]: 4430 nM | AC50 [2]: 913 nM

COc1cc(CNC(=O)N2CCC3(CC2)CC(=O)c2cc(F)cc(F)c2N3)ccn1 [Example 115, 6′,8′-difluoro-N-((2-methoxypyridin-4-yl)methyl)-4′-oxo-3′,4′-dihydro-1′H-spiro[piperidine-4,2′-quinoline]-1-carboxamide]
AC50 [1]: > 10000 nM | AC50 [2]: 930 nM

Cc1cc(N)ccc1CNC(=O)N1CCC2(CC1)CC(=O)c1cc(F)ccc1N2 [Example 116, N-(4-amino-2-methylbenzyl)-6′-fluoro-4′-oxo-3′,4′-dihydro-1′H-spiro[piperidine-4,2′-quinoline]-1-carboxamide]
AC50 [1]: > 10000 nM | AC50 [2]: 935 nM

C[C@H](O)CNC(=O)c1cc(CNC(=O)N2CCC3(CC2)CC(=O)c2cc(F)ccc2N3C)ccc1F [Example 117, (S)-6′-fluoro-N-(4-fluoro-3-((2-hydroxypropyl)carbamoyl)benzyl)-1′-methyl-4′-oxo-3′,4′-dihydro-1′H-spiro[piperidine-4,2′-quinoline]-1-carboxamide]
AC50 [1]: > 10000 nM | AC50 [2]: 956 nM

O=C1CC2(CCN(C(=O)NCc3ccon3)CC2)Nc2ccc(F)cc21 [Example 118, 6′-fluoro-N-(isoxazol-3-ylmethyl)-4′-oxo-3′,4′-dihydro-1′H-spiro[piperidine-4,2′-quinoline]-1-carboxamide]
AC50 [1]: > 10000 nM | AC50 [2]: 1010 nM

Cc1cc(CNC(=O)N2CCC3(CC2)CC(=O)c2cc(F)ccc2N3)ccc1N [Example 119, N-(4-amino-3-methylbenzyl)-6′-fluoro-4′-oxo-3′,4′-dihydro-1′H-spiro[piperidine-4,2′-quinoline]-1-carboxamide]
AC50 [1]: > 10000 nM | AC50 [2]: 1020 nM

O=C1CC2(CCN(C(=O)NCc3ccc4cc[nH]c4c3)CC2)Nc2ccc(F)cc21 [Example 120, N-((1H-indol-6-yl)methyl)-6′-fluoro-4′-oxo-3′,4′-dihydro-1′H-spiro[piperidine-4,2′-quinoline]-1-carboxamide]
AC50 [1]: > 10000 nM | AC50 [2]: 1050 nM

Cc1ccc(CNC(=O)N2CCC3(CC2)CC(=O)c2cc(F)cc(F)c2N3)s1 [Example 123, 6′,8′-difluoro-N-((5-methylthiophen-2-yl)methyl)-4′-oxo-3′,4′-dihydro-1′H-spiro[piperidine-4,2′-quinoline]-1-carboxamide]
AC50 [1]: 5390 nM | AC50 [2]: 1140 nM

O=C1CC2(CCN(C(=O)NCc3ccno3)CC2)Nc2ccc(F)cc21 [Example 124, 6′-fluoro-N-(isoxazol-5-ylmethyl)-4′-oxo-3′,4′-dihydro-1′H-spiro[piperidine-4,2′-quinoline]-1-carboxamide]
AC50 [1]: > 10000 nM | AC50 [2]: 1160 nM

O=C1CC2(CCN(C(=O)NCc3ccc(F)nc3)CC2)Nc2c(F)cc(F)cc21 [Example 125, 6′,8′-difluoro-N-((6-fluoropyridin-3-yl)methyl)-4′-oxo-3′,4′-dihydro-1′H-spiro[piperidine-4,2′-quinoline]-1-carboxamide]
AC50 [1]: > 10000 nM | AC50 [2]: 1170 nM

Nc1cc(CNC(=O)N2CCC3(CC2)CC(=O)c2cc(F)ccc2N3)c(F)cc1F [Example 126, N-(5-amino-2,4-difluorobenzyl)-6′-fluoro-4′-oxo-3′,4′-dihydro-1′H-spiro[piperidine-4,2′-quinoline]-1-carboxamide]
AC50 [1]: > 10000 nM | AC50 [2]: 1290 nM

O=C1CC2(CCN(C(=O)NCc3cccc(CO)c3)CC2)Nc2c(F)cc(F)cc21 [Example 129, 6′,8′-difluoro-N-(3-(hydroxymethyl)benzyl)-4′-oxo-3′,4′-dihydro-1′H-spiro[piperidine-4,2′-quinoline]-1-carboxamide]
AC50 [1]: > 10000 nM | AC50 [2]: 1520 nM

O=C1CC2(CCN(C(=O)NCc3cccc(-c4ncc[nH]4)c3)CC2)Nc2ccc(F)cc21 [Example 130, N-(3-(1H-imidazol-2-yl)benzyl)-6′-fluoro-4′-oxo-3′,4′-dihydro-1′H-spiro[piperidine-4,2′-quinoline]-1-carboxamide]
AC50 [1]: > 10000 nM | AC50 [2]: 1530 nM

CS(=O)(=O)Nc1cc(CNC(=O)N2CCC3(CC2)CC(=O)c2cc(F)ccc2N3)ccc1F [Example 131, 6′-fluoro-N-(4-fluoro-3-(methylsulfonamido)benzyl)-4′-oxo-3′,4′-dihydro-1′H-spiro[piperidine-4,2′-quinoline]-1-carboxamide]
AC50 [1]: > 10000 nM | AC50 [2]: 1620 nM

O=C1CC2(CCN(C(=O)NCc3ccc(F)c(CO)c3)CC2)Nc2c(F)cc(F)cc21 [Example 132, 6′,8′-difluoro-N-(4-fluoro-3-(hydroxymethyl)benzyl)-4′-oxo-3′,4′-dihydro-1′H-spiro[piperidine-4,2′-quinoline]-1-carboxamide]
AC50 [1]: > 10000 nM | AC50 [2]: 1720 nM

O=C1CC2(CCN(C(=O)NCc3ccc(F)c(NS(=O)(=O)C4CC4)c3)CC2)Nc2ccc(F)cc21 [Example 133, N-(3-(cyclopropanesulfonamido)-4-fluorobenzyl)-6′-fluoro-4′-oxo-3′,4′-dihydro-1′H-spiro[piperidine-4,2′-quinoline]-1-carboxamide]
AC50 [1]: > 10000 nM | AC50 [2]: 1770 nM
